Source: US20060083754A1, “Pharmaceutical combinations comprising corticoids and immunosuppressants for treating corticoid- and/or calcineurin inhibitors-resistant diseases” (priority 2003, published 2006)

What was measured:
[1] = system: human peripheral blood mononuclear cells (PBMC); assay: T-cell proliferation assay (BrdU ELISA), PBMC stimulated with anti-CD3 mAb + anti-CD28 mAb; assay type: cell-based; conditions: anti-CD3 mAb (0.1 μg/ml)+anti-CD28 mAb (1 μg/ml); for inhibition at 10 µM / inhibition at 0.03 µM: Homo sapiens, PBMC
[2] = system: human peripheral blood mononuclear cells (PBMC); assay: T-cell proliferation assay (BrdU ELISA), PBMC stimulated with SEB; assay type: cell-based; conditions: SEB (0.1 μg/ml); for inhibition at 0.03 µM: Homo sapiens, PBMC
[3] = Example 1, 200000 cells/well, HC 10 μM, ASM 30 nM, BETA 300 nM
[4] = Example 2, 100000 cells/well, HC 10 μM, ASM 30 nM, BETA 300 nM
[5] = Example 3, 50000 cells/well, HC 10 μM, ASM 30 nM, BETA 300 nM
[6] = Example 13, 200000 cells/well, HC 10 μM, FK 30 nM, BETA 300 nM
[7] = Example 14, 100000 cells/well, HC 10 μM, FK 30 nM, BETA 300 nM
[8] = Example 4, 200000 cells/well, HC 10 μM, ASM 30 nM, BETA 300 nM
[9] = Example 5, 100000 cells/well, HC 10 μM, ASM 30 nM, BETA 300 nM
[10] = Example 6, 200000 cells/well, DEX 300 nM, ASM 30 nM, BETA 300 nM
[11] = Example 7, 100000 cells/well, DEX 300 nM, ASM 30 nM, BETA 300 nM
[12] = Example 8, 50000 cells/well, DEX 300 nM, ASM 30 nM, BETA 300 nM
[13] = Example 11, 100000 cells/well, DEX 300 nM, ASM 30 nM
[14] = Example 15, 200000 cells/well, DEX 300 nM, FK 30 nM, BETA 300 nM
[15] = Example 16, 100000 cells/well, DEX 300 nM, FK 30 nM, BETA 300 nM
[16] = Example 17, 50000 cells/well, DEX 300 nM, FK 30 nM, BETA 300 nM
[17] = Example 18, 100000 cells/well, DEX 300 nM, FK 30 nM
[18] = Example 9, 200000 cells/well, DEX 300 nM, ASM 30 nM, BETA 300 nM
[19] = Example 10, 100000 cells/well, DEX 300 nM, ASM 30 nM, BETA 300 nM
[20] = Example 12, 100000 cells/well, DEX 300 nM, ASM 30 nM

SMILES: C[C@]12CCC(=O)C=C1CC[C@@H]1[C@@H]2[C@@H](O)C[C@@]2(C)[C@H]1CC[C@]2(O)C(=O)CO [HC, hydrocortisone]
- Normalized OD (% STIM-C) [1, 3]: 106.8 % STIM-C
- Normalized OD (% STIM-C) [1, 4]: 92.0 % STIM-C
- Normalized OD (% STIM-C) [1, 5]: 109.0 % STIM-C
- Normalized OD (% STIM-C) [1, 6]: 106.8 % STIM-C
- Normalized OD (% STIM-C) [1, 7]: 92.0 % STIM-C
- Normalized OD (% STIM-C) ([1]; Example 19, 200000 cells/well, HC 10 μM, CsA 300 nM, BETA 300 nM, HC (10 μM)+CsA (30 nM), BETA (300 nM)+CsA (300 nM)): 106.8 % STIM-C
- Normalized OD (% STIM-C) ([1]; Example 20, 100000 cells/well, HC 10 μM, CsA 300 nM, BETA 300 nM, HC (10 μM)+CsA (30 nM), BETA (300 nM)+CsA (300 nM)): 92.0 % STIM-C
- Normalized OD (% STIM-C) ([1]; Example 21, 50000 cells/well, HC 10 μM, CsA 300 nM, BETA 300 nM, HC (10 μM)+CsA (30 nM), BETA (300 nM)+CsA (300 nM)): 109.0 % STIM-C
- inhibition at 10 µM [1, 3]: -7.4%
- inhibition at 10 µM [1, 4]: < 17%
- inhibition at 10 µM [1, 5]: -9.7%
- inhibition at 10 µM [1, 6]: -7.4%
- Normalized OD (% STIM-C) [2, 8]: 89.0 % STIM-C
- Normalized OD (% STIM-C) [2, 9]: 100.5 % STIM-C
- Normalized OD (% STIM-C) ([2]; Example 22, 200000 cells/well, HC 10 μM, CsA 300 nM, BETA 300 nM, HC (10 μM)+CsA (30 nM), BETA (300 nM)+CsA (300 nM)): 89.0 % STIM-C

SMILES: C[C@@H]1C[C@H]2[C@@H]3CCC4=CC(=O)C=C[C@]4(C)[C@@]3(F)[C@@H](O)C[C@]2(C)[C@@]1(O)C(=O)CO [DEX, dexamethasone]
- Normalized OD (% STIM-C) [1, 10]: 87.2 % STIM-C
- Normalized OD (% STIM-C) [1, 11]: 76.5 % STIM-C
- Normalized OD (% STIM-C) [1, 12]: 82.2 % STIM-C
- Normalized OD (% STIM-C) [1, 13]: 76.3 % STIM-C
- Normalized OD (% STIM-C) [1, 14]: 87.2 % STIM-C
- Normalized OD (% STIM-C) [1, 15]: 76.5 % STIM-C
- Normalized OD (% STIM-C) [1, 16]: 82.2 % STIM-C
- Normalized OD (% STIM-C) [1, 17]: 76.3 % STIM-C
- Normalized OD (% STIM-C) ([1]; Example 23, 200000 cells/well, DEX 300 nM, CsA 300 nM, BETA 300 nM, DEX (300 nM)+CsA (30 nM), BETA (300 nM)+CsA (300 nM)): 87.2 % STIM-C
- Normalized OD (% STIM-C) ([1]; Example 24, 100000 cells/well, DEX 300 nM, CsA 300 nM, BETA 300 nM, DEX (300 nM)+CsA (30 nM), BETA (300 nM)+CsA (300 nM)): 76.5 % STIM-C
- Normalized OD (% STIM-C) ([1]; Example 25, 50000 cells/well, DEX 300 nM, CsA 300 nM, BETA 300 nM, DEX (300 nM)+CsA (30 nM), BETA (300 nM)+CsA (300 nM)): 82.2 % STIM-C
- Normalized OD (% STIM-C) ([1]; Example 27, 100000 cells/well, DEX 300 nM, CsA 300 nM): 76.3 % STIM-C
- Normalized OD (% STIM-C) [2, 18]: 101.5 % STIM-C
- Normalized OD (% STIM-C) [2, 19]: 86.4 % STIM-C
- Normalized OD (% STIM-C) [2, 20]: 105.7 % STIM-C
- Normalized OD (% STIM-C) ([2]; Example 26, 200000 cells/well, DEX 300 nM, CsA 300 nM, BETA 300 nM, DEX (300 nM)+CsA (30 nM), BETA (300 nM)+CsA (300 nM)): 101.5 % STIM-C

SMILES: CC[C@@H]1/C=C(\C)C[C@H](C)C[C@H](OC)[C@H]2O[C@@](O)(C(=O)C(=O)N3CCCC[C@H]3C(=O)O[C@H](/C(C)=C/[C@@H]3CC[C@H](Cl)[C@H](OC)C3)[C@H](C)[C@@H](O)CC1=O)[C@H](C)C[C@@H]2OC [ASM, 33-epi-33-chloro-FR 520]
- Normalized OD (% STIM-C) [1, 3]: 93.9 % STIM-C
- OD [1, 3]: 0.721
- Normalized OD (% STIM-C) [1, 4]: 85.1 % STIM-C
- OD [1, 4]: 0.776
- Normalized OD (% STIM-C) [1, 5]: 113.2 % STIM-C
- OD [1, 5]: 0.994
- Normalized OD (% STIM-C) [1, 10]: 98.0 % STIM-C
- OD [1, 10]: 0.772
- Normalized OD (% STIM-C) [1, 11]: 87.4 % STIM-C
- OD [1, 11]: 0.734
- Normalized OD (% STIM-C) [1, 12]: 86.2 % STIM-C
- OD [1, 12]: 0.908
- Normalized OD (% STIM-C) [1, 13]: 79.1 % STIM-C
- OD [1, 13]: 0.918
- inhibition at 0.03 µM [1, 3]: 6.7%
- inhibition at 0.03 µM [1, 4]: < 17%
- inhibition at 0.03 µM [1, 5]: -14.3%
- inhibition at 0.03 µM [1, 11]: < 25%
- inhibition at 0.03 µM [1, 12]: < 26%
- inhibition at 0.03 µM [1, 13]: < 25%
- Normalized OD (% STIM-C) [2, 8]: 95.8 % STIM-C
- OD [2, 8]: 1.015
- Normalized OD (% STIM-C) [2, 9]: 78.1 % STIM-C
- OD [2, 9]: 0.665
- Normalized OD (% STIM-C) [2, 18]: 83.1 % STIM-C
- OD [2, 18]: 0.752
- Normalized OD (% STIM-C) [2, 19]: 67.3 % STIM-C
- OD [2, 19]: 0.660
- Normalized OD (% STIM-C) [2, 20]: 77.5 % STIM-C
- OD [2, 20]: 1.013
- inhibition at 0.03 µM [2, 9]: < 24%
- inhibition at 0.03 µM [2, 18]: < 19%
- inhibition at 0.03 µM [2, 19]: < 34%
- inhibition at 0.03 µM [2, 20]: < 24%

SMILES: C=CC[C@@H]1/C=C(\C)C[C@H](C)C[C@H](OC)[C@H]2O[C@@](O)(C(=O)C(=O)N3CCCC[C@H]3C(=O)O[C@H](/C(C)=C/[C@@H]3CC[C@@H](O)[C@H](OC)C3)[C@H](C)[C@@H](O)CC1=O)[C@H](C)C[C@@H]2OC [FK, tacrolimus]
- Normalized OD (% STIM-C) [1, 6]: 119.9 % STIM-C
- OD [1, 6]: 0.921
- Normalized OD (% STIM-C) [1, 7]: 72.6 % STIM-C
- OD [1, 7]: 0.662
- Normalized OD (% STIM-C) [1, 14]: 100.9 % STIM-C
- OD [1, 14]: 0.795
- Normalized OD (% STIM-C) [1, 15]: 96.3 % STIM-C
- OD [1, 15]: 0.809
- Normalized OD (% STIM-C) [1, 16]: 79.6 % STIM-C
- OD [1, 16]: 0.838
- Normalized OD (% STIM-C) [1, 17]: 78.0 % STIM-C
- OD [1, 17]: 0.905
- inhibition at 0.03 µM [1, 6]: -21.9%
- inhibition at 0.03 µM [1, 7]: < 31%
- inhibition at 0.03 µM [1, 16]: < 26%
- inhibition at 0.03 µM [1, 17]: < 25%
